Inconclusive results are not listed. Active and inactive are the calls of the source.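 The calls were made as follows: active = signal loss with an EC50 at or below twice the highest valid dose for that sample; inconclusive = flat curve with 30 to 70% inhibition, or poor fit; inactive = the rest.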
System: P. falciparum Dd2 in erythrocytes, SYBR Green growth, 72 h
Experiment: P. falciparum Dd2 growth inhibitors, dose response, SYBR Green, dry powder samples, set 9 (AID 1159568)

For `O=C(C[C@H]1C[C@H]2c3cc(NC(=O)c4ccc5c(c4)OCO5)ccc3O[C@H]2[C@H](CO)O1)NCc1ccc(Oc2ccccc2)cc1`, the EC50 was > 39 µM (inactive).

Reference: PubChem BioAssay AID1159568 (Broad Institute, 2015)
